Test results taken from ChEMBL document CHEMBL5226287, “Small organic molecules targeting the energy metabolism of Mycobacterium tuberculosis” (Eur J Med Chem, 2021).
Converted amounts (≈) assume the structure as drawn. Starred links: 1 amine or outer side, 2 acyl side, 3 side chain; linkers in the order of their positions; H or OH if unused. Non-standard residues stand in square brackets, D forms with d. Residues, ends and D or L forms follow the SMILES beside them. ξ: configuration not given here. *: point of attachment. X1 = CCC(=O)C[C@@H](O)C[C@@H](C)C[C@H](N[*:1])C(=O)[*:2]; Alaψ(CH2NMeCH2CH2OH) = C[C@@H](CN(C)CCO)N*; Decanoyl(2R-Me) = CCCCCCCC[C@@H](C)C(=O)*; Ile(3ξ) = CCC(C)[C@H](N)C(=O)O; ξβ3hP = O=C(O)CC1CCCN1; Aib = CC(C)(N)C(=O)O

Assays:
[1] = system: Mycobacterium tuberculosis; experiment: Inhibition of ATP synthesis in Mycobacterium tuberculosis H37Rv derived membrane vesicle incubated for 60 mins by luciferase based assay; type: functional; details: 1 h
[2] = system: Mycobacterium tuberculosis; experiment: Antibacterial activity against ATP synthesis in Mycobacterium tuberculosis H37Rv derived membrane vesicle incubated for 60 mins by luciferase based assay; type: functional; details: 1 h
[3] = system: Mycobacterium tuberculosis; experiment: Antitubercular activity against Mycobacterium tuberculosis H37Rv infected in THP-1 cells assessed as intracellular bacterial growth measured over 6 days; type: functional; details: 144 h, time 6 day
[4] = system: Mycobacterium tuberculosis; experiment: Antimycobacterial activity against Mycobacterium tuberculosis H37Rv after 14 days; type: functional; details: 336 h, time 14 day
[5] = Inhibition of Mycobacterium tuberculosis TFP incubated for 60 mins by UPLC based assay
[6] = system: Mycobacterium tuberculosis; experiment: Antimycobacterial activity against Mycobacterium tuberculosis H37Rv; type: functional, organism-based
[7] = system: Mycobacterium tuberculosis; experiment: Antibacterial activity against Mycobacterium tuberculosis H37Rv ATCC 27294 assessed as reduction in microbial growth in GAST media; type: functional
[8] = Kinetic aqueous solubility of the compound in 2.5% DMSO/PBS at pH 7.4 incubated for 2 hrs by nephelometry analysis; type: physicochemical; details: PBS with 2.5% DMSO, read-out: Kinetic_solubility
[9] = system: Mycobacterium tuberculosis; experiment: Antibacterial activity against Mycobacterium tuberculosis H37Rv-LP ATCC 25618 assessed reduction in bacterial growth by microplate alamar blue assay; type: functional
[10] = system: Mycobacterium tuberculosis; experiment: Antibacterial activity against Mycobacterium tuberculosis H37Rv ATCC 25618 assessed as complete inhibition of bacterial growth measured after 5 days by spectrophotometry method; type: functional; details: H37Rv ATCC 25618, 120 h, time 5 day
[11] = system: Mycobacterium tuberculosis; experiment: Antitubercular activity against Mycobacterium tuberculosis H37Rv assessed as growth inhibition in presence of ATP; type: functional
[12] = system: Mycobacterium tuberculosis; experiment: Antibacterial activity against Mycobacterium tuberculosis H37Rv assessed as reduction bacterial growth after 14 days by micro broth dilution method; type: functional; details: 336 h, time 14 day
[13] = Inhibition of Mycobacterium smegmatis ptpB expressed in Escherichia coli […] cells in the presence of ATP cells using 6,8-difluoromethylumbelliferyl phosphate as substrate incubated for 30 mins by fluorescence based assay; parameters: species or system Mycolicibacterium smegmatis
[14] = system: Mycobacterium tuberculosis; experiment: Antibacterial activity against Mycobacterium tuberculosis H37Rv in macrophages by CLSI broth microdilution method; type: functional
[15] = Inhibition of Mycobacterium tuberculosis H37Rv ATP synthase
[16] = system: Mycobacterium tuberculosis; experiment: Antibacterial activity against Mycobacterium tuberculosis H37Rv in the presence of ATP synthase; type: functional
[17] = system: Mycobacterium tuberculosis; experiment: Antibacterial activity against Mycobacterium tuberculosis H37Rv assessed as greater inhibition of microbial growth in presence of depletion of ATP levels by microplate alamar blue assay; type: functional, organism-based
[18] = system: Mycobacterium tuberculosis; experiment: Antibacterial activity against Mycobacterium tuberculosis H37Rv after 7 days by resazurin dye-based assay; type: functional; details: time 7 day
[19] = system: Mycobacterium tuberculosis; experiment: Antibacterial activity against Mycobacterium tuberculosis assessed as inhibition of bacterial growth in the presence of NADH II dehydrogenase; type: functional, organism-based
[20] = system: Mycobacterium tuberculosis; experiment: Antibacterial activity against Mycobacterium tuberculosis H37Rv-MA ATCC 27294 assessed reduction in bacterial growth by microplate alamar blue assay; type: functional
HepG2 = experiment: Cytotoxicity against human HepG2 cells assessed as cell viability at 100 uM by MTT assay; type: functional; details: read-out: TD50 (the source's name)
[21] = system: Mycobacterium tuberculosis; experiment: Antitubercular activity against Mycobacterium tuberculosis H37Rv incubated for 14 days in GAST/FE medium by Alamar blue assay; type: functional; details: 336 h, time 14 day
[22] = system: Mycobacterium tuberculosis; experiment: Antitubercular activity against Mycobacterium tuberculosis H37Rv assessed as inhibition of bacterial growth by fluorescence based analysis; type: functional
[23] = system: Mycolicibacterium smegmatis; experiment: Antibacterial activity against Mycobacterium smegmatis assessed as inhibition of bacterial growth in the presence of NADH II dehydrogenase; type: functional, organism-based
[24] = system: Mycobacterium tuberculosis; experiment: Antibacterial activity against Mycobacterium tuberculosis H37Rv ATCC assessed as reduction in bacterial growth by microdilution method; type: functional
[25] = system: Mycobacterium tuberculosis; experiment: Antibacterial activity against Mycobacterium tuberculosis cytochrome bd oxidase assessed as reduction in bacterial growth in the presence of resazurin reduction under microplate alamarBlue assay; type: functional
[26] = system: Mycobacterium tuberculosis; experiment: Antibacterial activity against Mycobacterium tuberculosis H37Rv assessed as reduction in bacterial growth in the presence of resazurin reduction under microplate alamarBlue assay; type: functional
[27] = system: Mycobacterium tuberculosis; experiment: Antibacterial activity against Mycobacterium tuberculosis H37Rv assessed as inhibition of bacterial growth by microdilution method; type: functional
[28] = system: Mycobacterium tuberculosis; experiment: Antibacterial activity against Mycobacterium tuberculosis cytochrome bd oxidase assessed as reduction in bacterial growth in the presence of resazurin reduction under by microdilution method; type: functional
[29] = Lipophilicity, log P of the compound at pH 6.5; type: physicochemical; details: buffer

Nc1c2c(nc3sc4c(c13)CCCCC4)CCCC2 showed an IC50 [1] of 3400 nM and an MIC50 [2] of 1.7 µM (≈ 0.463 µg/mL).

For O=C(/C=C/c1cccs1)N1CCN(Cc2ccc3c(c2)OCO3)CC1, the MIC [3] was 0.4 µM (≈ 0.143 µg/mL), the MIC [4] was 0.05 µM (≈ 0.0178 µg/mL) and the IC50 [5] was 0.1 µg/mL (≈ 0.281 µM).

Cc1ccn2c(C(=O)NCc3ccccc3)c(C)nc2c1 showed an IC50 [6] of 150 nM.

O=C(CSc1nc2ccccc2c(=O)[nH]1)NC1CCCCC1 showed an MIC [7] of 0.3 µM and a solubility kinetic at 2 h [8] of 83 µM (≈ 26.3 µg/mL).

In the case of CCc1nc2ccc(C)cc2n1CCCCOc1ccccc1, the MIC50 [9] is reported as 0.34 µM (≈ 0.105 µg/mL).

For CCc1nc2ccccc2n1CCCCNc1ccccc1, the MIC99 [10] was 0.47 µM (≈ 0.138 µg/mL).

Work on CCc1nc2ccc(C)cc2n1CCCNc1ccc(C)cc1 yielded an MIC99 [10] of 0.061 µM (≈ 0.0188 µg/mL).

O=C(CNC1CCCCC1)N(c1ccccc1)c1ccccc1 gave an MIC [11] of 5.23 µg/mL.

COc1ccc(/C=C2/S/C(=N/N=C/c3ccccc3O)NC2=O)cc1 showed an MIC90 [12] of 0.5 µg/mL (≈ 1.41 µM), an IC50 [13] of 312 nM and an MIC90 [14] of 4 µg/mL (≈ 11.3 µM).

Compound O=C(CNC1CCCC1)N(c1ccccc1)c1ccccc1 has an MIC [11] of 6.25 µg/mL.

For CN(C)Cc1ccc(-c2cc3cc(Br)ccc3nc2OCc2ccncc2)cc1, the IC50 [15] was 20300 nM and the MIC [16] was 0.43 µg/mL.

CCCCNc1nc(CC)nc2sc(C)cc12 showed an IC50 [17] of 840 nM.

In the case of CCSc1nc(NC)c2ccc(F)c(F)c2n1, the TD50 [18] is reported as 0.02 µg/mL.

Work on C=CCN1NC(C(=O)N2CCSCC2)C2CC(NCc3ccc(Cl)s3)CCC21 (stereo not drawn) yielded an IC50 [19] of 64.7 nM.

Work on CCc1nc2ccccc2n1CCCCSc1nc(-c2ccccc2)cs1 yielded an MIC50 [20] of 5.3 µM (≈ 2.09 µg/mL).

In the case of CCNc1nc(SCC)nc2ccccc12, the TD50 [18] is reported as 0.09 µg/mL and the CC50 (HepG2) is reported as > 5 µg/mL.

With O=C(CSc1nc2ccccc2c(=O)[nH]1)NC1CCC(F)(F)CC1 the MIC [7] was 0.5 µM.

With CN(C)CCN1CCN(c2ccc(-c3cc4cc(Br)ccc4nc3OCc3ccc4ccccc4c3)cc2)CC1 the IC50 [15] was 38800 nM and the MIC [16] was 0.44 µg/mL.

CCc1ccn2c(C(=O)NCc3ccc(C)cc3)c(C)nc2c1 showed an MIC [21] of 0.004 µM (≈ 0.00123 µg/mL).

In the case of Cc1ccc2nc(C)c(C(=O)NCc3ccc(Cl)nc3)n2c1, the MIC [22] is reported as 5 µM (≈ 1.57 µg/mL).

Cc1ccn2c(C(=O)NCc3cccc(OC(C)C)c3)c(C)nc2c1 showed an IC50 [6] of 390 nM.

For O=C(/C=C/c1cscn1)N1CCN(Cc2ccc3c(c2)OCO3)CC1, the MIC [3] was 0.6 µM (≈ 0.214 µg/mL) and the MIC [4] was 0.1 µM (≈ 0.0357 µg/mL).

In the case of O=C(CSc1nc2cccc(F)c2c(=O)[nH]1)NC1CCC(F)(F)CC1, the IC50 [23] is reported as 10.7 nM.

For Cc1ccc2nc(C)c(C(=O)NCc3ccc(C(F)(F)F)cc3)n2c1, the MIC [22] was 0.03 µM (≈ 0.0104 µg/mL).

O=C(CSc1nc2ccccc2c(=O)[nH]1)NCC1CCC(F)(F)CC1 gave an MIC [7] of 0.8 µM, a solubility kinetic at 2 h [8] of 250 µM (≈ 91.9 µg/mL) and an IC90 [24] of 5100 nM.

For COc1ccc(CNC(=O)c2c(C)nc3ccc(Br)cn23)cc1, the MIC [25] was < 0.024 µM, the MIC [26] was 0.15 µM and the MIC [27] was > 50 µM. The MIC [28] was < 0.024 µM.

Compound CCCCCCCC[C@@H](C)C(=O)N1CCCC1CC(=O)N[C@@H](C[C@H](C)C[C@H](O)CC(=O)CC)C(=O)NC(C)(C)C(=O)NC(C)(C)C(=O)N[C@H](C(=O)N[C@H](C(=O)NC(C)(C)C(=O)NC(C)(C)C(=O)N[C@@H](C)CN(C)CCO)C(C)C)C(C)CC (stereo partly drawn) ({Decanoyl(2R-Me)}-[ξβ3hP][X1][Aib][Aib][Ile(3ξ)]V[Aib][Aib]-{Alaψ(CH2NMeCH2CH2OH)}) has a logD [29] of 4.37.

With Cc1ccc(-c2nc3ccc(C)cn3c2CC(=O)N(C)C)cc1 [ZOLPIDEM] the MIC [21] was 10 µM (≈ 3.07 µg/mL).
